# Experimental data from PMC10938439, “C-3 Steroidal Hemiesters as Inhibitors of 17β-Hydroxysteroid Dehydrogenase Type 10” (ACS Omega, 2024).
# Entries after “also recorded” stand apart in the source; their conditions may differ.
# Assays:
# [1] = design: method as in PMID 30296546; conditions: cited from earlier work
# [2] = biological target: T1, 17β-HSD10 overexpressed in HEK-293 (HEK-293-HSD10 cell line) (Homo sapiens, UniProt Q99714); assay: Fluorogenic (−)–CHANA assay for cellular inhibition of 17β-HSD10; format: cell-based; conditions: HEK-293-HSD10, (−)–CHANA probe
# T1 construct: expressed in transfected cells; host or cells: HEK-293 (HEK-293-HSD10)
# T1 sequence (Q99714 1-261): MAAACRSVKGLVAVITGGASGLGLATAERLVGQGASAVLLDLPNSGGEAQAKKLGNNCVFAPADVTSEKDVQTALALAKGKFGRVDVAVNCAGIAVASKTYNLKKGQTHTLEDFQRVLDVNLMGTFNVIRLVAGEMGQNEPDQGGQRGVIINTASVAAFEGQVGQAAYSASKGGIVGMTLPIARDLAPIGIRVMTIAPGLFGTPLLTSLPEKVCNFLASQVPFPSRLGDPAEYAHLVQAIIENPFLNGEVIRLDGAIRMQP
# Description: Identical concentrations of compound 23 were used for fluorogenic cellular assay using a special probe (−)–CHANA as a substrate for 17β-HSD10 overexpressed in HEK-293 (HEK-293-HSD10 cell line).[15] […] The exact IC50 value at the cellular level was not possible to determine because of some method interferences, as well as its unknown cytotoxic characteristics. Higher IC50 (>20 μM) is in agreement with the high concentration of 17β-HSD10 in the model cell line.[15]
# A previously published cell line with overexpressed 17β-HSD10 (HEK-293-HSD10)[15] was used to measure 17β-HSD10 inhibition in the cellular environment. For this purpose, the (−)–CHANA fluorogenic probe was used. The cells (density 1 × 10^4 cells per well) were seeded in DMEM (200 μL) without phenol red (Gibco). […] The changes in fluorescent intensities were measured immediately after (-)-CHANA addition and 2 h later. The fluorescence intensities of the CHANK product were taken by using the TECAN SPARK 10 M instrument (Ex/Em = 380/525 nm). The residual 17β-HSD10 activity was calculated as ΔF between 2 and 0 h after (-)-CHANA treatment, and the data were normalized between nontreated HEK-293-HSD10 and native, nontransfected HEK-293 controls (using relative response ratio). […]
# [3] = tested on: HEK-293 cells; assay: CellTox Green cytotoxicity assay; format: cell-based; conditions: HEK-293, up to 20 μM
# Description: Finally, because the strongest inhibitor identified in vitro compound 23 has a favorable permeability coefficient, its potency to inhibit 17β-HSD10 also at the cellular level was determined. First, it was necessary to exclude the possibility that higher concentrations of compound 23 could be unfavorable to cells. The effects of compound 23 on the cellular viability and cytotoxicity of this compound (1, 10, and 20 μM) were determined using CellTiter-Glo Viability Assay and CellTox Green Assay, respectively, on HEK-293 cell line.
# HEK-293 cells in DMEM (Capricorn) were supplemented with fetal bovine serum (10%, Gibco), L-glutamine (2 mM, Lonza), and nonessential amino acid additives (Gibco). Cells were maintained at 37 °C under a humidified atmosphere of 5% CO2. Compound 23 was tested on the HEK-293 cell line on cell viability using CellTox Green (G8741, Promega) and the CellTiter-Glo 2.0 kit (G9241, Promega), respectively, to establish their cytotoxic effect. Using a Tecan Spark 10 M instrument, the measurements were performed as end point methods in the multiplex. For multiplex measurement, 7500 cells were seeded per well in 50 μL of culture media and cultured for 24 h before the addition of selected compounds. […] Next, the CellTiter-Glo Luminescent Cell Viability Assay with an integration time of 500 ms was determined.
# [4] = design: method as in PMID 30296546; conditions: cited from earlier work; remark: listed apart in the source
structure (smiles),measurement,setting,value
"C[C@@]12CCC[C@H]1[C@@H]1CC=C3C[C@@H](OC(=O)CCCCC(=O)O)CC[C@]3(C)[C@H]1CC2 [Compound 23, Androst-5-en-3β-yl Hemiadipate]","human plasma stability, % remaining after 8 h",[1],100%
same,inhibition at 25 µM,"[2]; HEK293, highest concentration 25 μM, read-out: inhibition of 17β-HSD10 activity in cells",~50%
same,IC50,"[2]; exact value not determinable, read-out: IC50 at the cellular level",> 20 µM
same,cytotoxicity (CellTox Green),[3],not cytotoxic; also recorded: not toxic
same,"rat plasma stability, % remaining after 8 h",[4],32%
